# Source: patent publication US5686428A, “Pharmaceutical composition” (priority 1994, dated 1997)
# “Also recorded” adds a separate entry of the source. Where two headings read alike, the source gives them in different places.
# Assays:
# HCMV strain Ad169 = test: HCMV plaque reduction assay in HEL cells; type: cell-based, human cytomegalovirus; details: for EC50: Human betaherpesvirus 5, AD169, HEL, CMV infected cells
# Description: HCMV strain Ad169 was a gift from Dr. Fred Rapp, Hersey, Pa. Human embryonic lung (HEL) cells, obtained from the American Type Culture Collection, Rockville, Md., were cultured in Dulbecco modified Eagle medium as decribed previously (39). Viable cells were conducted microscopically using a hemacytometer and the trypan blue exclusion method. Plaque reduction assays were performed in confluent monolayers of HEL cells in 6-well plates (Costar, Cambridge, Mass.) with 100 to 200 pfu of HCMV Ad169. After an adsorption period of 1 hour, unadsorbed virus was removed and the monolayers were overlaid with Dulbecco modified Eagle medium containing 0.75% SeaPlaque agarose (FMC BioProducts, Rockland, Me.), 2% heat inactivated fetal calf serum, and the appropriate concentration of drug. The plates were incubated at 37° C. in a humidified atmosphere containing 5% CO2 for 10 to 12 days. The monolayers were then fixed with 10% buffered Formalin (Fisher Scientific Co, Fair Lawn, N.J.), stained with crystal violet, and the number of plaques were counted.
# (§1) Calculation of synergy. […] Briefly, the method involves plotting of dose-effect curves for each compound alone and in combinations. It is essential to use a fixed ratio of the agents in multiply diluted combinations in order to use the median-effect equation: fa /fu =(C/Cm)^m. In this equation, C is the concentration, fa and fu are the fractions of the system which are affected and unaffected, respectively, by concentration C. Cm is the concentration required for a 50% effect (analogous to IC50 to EC50 values), and m is a Hill-type coefficient signifying the sigmoidicity of the dose-effect curve. The slopes (m) of the dose-effect plots, obtained for the studied compounds, provided information as to whether the compounds are mutually exclusive (i.e. similar modes of action) or mutually non-exclusive (i.e. different modes of action). When the plots of both compounds and their combination were all parallel, the effects of the two compounds were mutually exclusive. The interaction between two compounds was determined by calculating the combination index (C.I.) with assumptions, where appropriate, of either mutually exclusive or non-exclusive interactions. When uncertainty existed as to whether the drugs acted in similar or independent manners, the determination of C.I.-values were calculated under each assumption and compared. Values of C.I.<1 indicated synergy, C.I.=1 indicated additive effects, and C.I.>1 indicated antagonism. A computer program obtained from Elsevier-Biosoft, Cambridge, U.K. was used for automatic analysis of all dose-effect data. Additional details on using this method have been reported previously (33).
# HIV-1 (strain LAV-1) = test: HIV-1 replication in infected human PBM cells (RT activity of disrupted virions); type: cell-based; details: for EC50: read-out: EC50 (median effective concentration)
# Excerpt: Cells, virus strains, and cell culture assays. PBM cells from healthy HIV-1 and hepatitis B virus seronegative donors were isolated and propagated as described previously (35). HIV-1 (strain LAV-1) was obtained from the Centers for Disease Control, Atlanta, and propagated in PHA-stimulated human PBM cells as described previously (35). The details of the methods used for infection and assaying the anti-HIV-1 effect in infected human PBM cells have been reported (35).
# RT activity assay with disrupted virions. Six ml supernatant from each culture was clarified from cells at 300× g for 10 minutes. Virus particles were then pelleted from 5 ml samples at 40,000 rpm for 30 minutes using a Beckman 70.1 Ti rotor and suspended in 200 μl of virus disrupting buffer [50 mM Tris-HCl pH 7.8, 800 mM NaCl, 20% glycerol, 0.5 mM phenylmethyl sulfonyl fluoride (PMSF), and 0.5% Triton X-100].
# The RT assays were performed at 37° C. in 96-well microtiter plates using methods described previously (35, 38). The results were expressed as dpm/ml of the originally clarified supernatant.
# as §1
# [1] = test system: uninfected PHA-stimulated human PBM cells; test: Cell proliferation / toxicity in uninfected PBM cells (trypan blue exclusion); type: cell-based
# Description: Cell proliferation. The drugs alone and in combination were evaluated for their potential toxic effects on uninfected PHA-stimulated human PBM cells. Flasks were seeded so that the final cell concentration was 3×10^5 cells ml. The cells were cultured with and without drug for 6 days at which time aliquots were counted for cell viability by using the trypan blue exclusion method.
# HCMV DNA polymerase = target: T1, HCMV DNA polymerase (Human cytomegalovirus, UniProt P08546); test: CMV DNA polymerase assay; type: biochemical
# T1 construct: gift from Dr. B. Wahren, National Bacteriological Laboratory, Stockholm
# T1 sequence (P08546 whole entry): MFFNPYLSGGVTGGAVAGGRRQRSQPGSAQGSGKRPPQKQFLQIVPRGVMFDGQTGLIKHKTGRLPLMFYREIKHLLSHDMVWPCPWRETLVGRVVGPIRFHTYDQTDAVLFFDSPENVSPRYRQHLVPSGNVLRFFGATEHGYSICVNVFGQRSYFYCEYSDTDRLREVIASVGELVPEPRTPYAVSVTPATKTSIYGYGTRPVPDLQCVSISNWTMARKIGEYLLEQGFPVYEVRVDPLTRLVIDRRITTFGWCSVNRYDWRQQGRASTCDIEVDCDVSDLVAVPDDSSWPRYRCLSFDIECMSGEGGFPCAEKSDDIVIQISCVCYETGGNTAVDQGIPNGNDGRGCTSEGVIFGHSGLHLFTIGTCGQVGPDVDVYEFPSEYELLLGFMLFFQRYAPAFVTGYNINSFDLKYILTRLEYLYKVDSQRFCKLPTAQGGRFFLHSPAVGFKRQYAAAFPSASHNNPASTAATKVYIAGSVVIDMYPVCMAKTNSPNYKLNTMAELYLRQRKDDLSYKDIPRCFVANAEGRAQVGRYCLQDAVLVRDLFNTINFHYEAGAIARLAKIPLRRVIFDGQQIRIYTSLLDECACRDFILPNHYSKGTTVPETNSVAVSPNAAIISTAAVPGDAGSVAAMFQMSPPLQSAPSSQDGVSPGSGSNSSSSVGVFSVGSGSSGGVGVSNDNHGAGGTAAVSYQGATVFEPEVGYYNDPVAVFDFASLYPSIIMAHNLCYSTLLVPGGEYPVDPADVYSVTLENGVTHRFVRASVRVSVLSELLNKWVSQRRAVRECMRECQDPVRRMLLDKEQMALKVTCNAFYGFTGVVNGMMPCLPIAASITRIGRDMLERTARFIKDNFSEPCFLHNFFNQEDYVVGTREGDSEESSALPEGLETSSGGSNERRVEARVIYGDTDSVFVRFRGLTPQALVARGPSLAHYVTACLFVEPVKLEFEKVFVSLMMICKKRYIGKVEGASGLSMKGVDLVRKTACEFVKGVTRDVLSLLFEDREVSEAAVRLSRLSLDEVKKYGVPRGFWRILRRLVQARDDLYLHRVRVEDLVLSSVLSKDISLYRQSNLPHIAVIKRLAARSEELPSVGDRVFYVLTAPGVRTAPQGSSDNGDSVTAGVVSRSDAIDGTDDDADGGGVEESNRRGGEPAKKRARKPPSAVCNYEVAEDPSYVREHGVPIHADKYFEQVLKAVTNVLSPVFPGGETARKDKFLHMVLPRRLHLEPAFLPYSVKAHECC
# Excerpt: CMV DNA Polymerase Assay. The partially purified HCMV-specific DNA polymerase was a generous gift from Dr. B. Wahren, National Bacteriological Laboratory, Stockholm. The procedure for the purification of HCMV DNA polymerase by sequential chromatographic steps on DEAE-cellulose (Whatman DE-52) and phosphocellulose (Whatman P-11) and the measurement of enzyme activity have been described previously (5).
# as §1
# HIV-1 = details: patients, after a 14-day treatment; cited from earlier work
# [2] = target: T2, HIV-1 reverse transcriptase (Human immunodeficiency virus type 1 group M subtype B, UniProt P04585); test: RT activity assay with partially purified enzyme; type: biochemical
# T2 construct: HIV-1 reverse transcriptase was isolated from detergent disrupted virions; endogenous in cells; host or cells: virions from cell-free supernatant of HIV-1 infected PHA-stimulated human PBM cells, ion-exchange chromatography
# Description: RT activity assay with partially purified enzyme. HIV-1 reverse transcriptase was isolated from detergent disrupted virions obtained from the cell-free supernantant of infected PHA-stimulated PBM cells. The enzyme was purified by passing the extract through ion-exchange chromatography columns as described previously (12). The enzyme was characterized as HIV-1 RT based on its specific requirements according to previous description (1, 18). The standard reaction mixture (100 μl) contained 100 mM Tris-HCl (pH 8.0), 50 mM KCl, 2 mM MgCl2. 5 mM dithiothreitol 400 μg/ml bovine serum albumin, 0.05 U/ml (3.1 μg/ml) of (rA)n (dT)12-18, 1 μM [^3 H] dTTP (spec. act. 18,000 cpm/pmol) and 10 μl of HIV-1 Rt. The reactions were incubated and processed as previously described (7).
# as §1
# [3] = Human immunodeficiency virus 1, PBMC
structure (smiles),measurement,setting,value
"Cc1cn([C@H]2C[C@H](N=[N+]=[N-])[C@@H](CO)O2)c(=O)[nH]c1=O [AZT, 3'-azido-3'-deoxythymidine]",EC50,"HCMV strain Ad169; extrapolated in order to calculate C.I.-values, read-out: EC50 (extrapolated)",383000 nM
same,inhibitory effect on multiplication of HCMV Ad169 in HEL fibroblasts,HCMV strain Ad169; concentrations up to 200 μM,virtually without inhibitory effect
same,effect against HCMV replication in cell culture,HCMV strain Ad169; human embryonic lung fibroblasts,no inhibitory effect; also recorded: neither inhibited the replication
same,RT activity,HIV-1 (strain LAV-1); AZT 0.002 μM,750 kdpm/ml
same,RT activity,HIV-1 (strain LAV-1); AZT 0.004 μM,584 kdpm/ml
same,RT activity,HIV-1 (strain LAV-1); AZT 0.008 μM,343 kdpm/ml
same,RT activity,HIV-1 (strain LAV-1); AZT 0.016 μM,35.9 kdpm/ml
same,inhibition at 0.002 µM,HIV-1 (strain LAV-1); [3],3%
same,inhibition at 0.004 µM,HIV-1 (strain LAV-1); [3],24.5%
same,inhibition at 0.008 µM,HIV-1 (strain LAV-1); [3],55.7%
same,inhibition at 0.016 µM,HIV-1 (strain LAV-1); [3],95.5%
same,EC50,HIV-1 (strain LAV-1); [3],6 nM
"O=C(O)P(=O)(O)O [PFA, phosphonoformic acid]",EC50,"HCMV strain Ad169; plaque formation, read-out: EC50 (median effective concentration)",34000 nM
same,toxicity to PBM cells,[1],not toxic
same,EC50 times lower than that of AZT-TP,HCMV DNA polymerase,more than 30 times
same,m ± SE (slope of median effect plot),HCMV DNA polymerase; CMV DNA polymerase,0.79 ± 0.02
same,EC50,"HCMV DNA polymerase; CMV DNA polymerase, read-out: EC50 (median effective concentration)",780 nM
same,HIV-1 p24 antigen concentrations,HIV-1,significant reduction
same,EC50,[2],140 nM
same,m ± SE (slope of median effect plot),[2]; HIV-1 reverse transcriptase,0.91±0.03
same,inhibition at 8 µM,HIV-1 (strain LAV-1); [3],9.1%
same,inhibition at 16 µM,HIV-1 (strain LAV-1); [3],41.1%
same,inhibition at 32 µM,HIV-1 (strain LAV-1); [3],75.5%
same,inhibition at 64 µM,HIV-1 (strain LAV-1); [3],88.1%
same,inhibition at 128 µM,HIV-1 (strain LAV-1); [3],95.5%
same,EC50,HIV-1 (strain LAV-1); [3],22000 nM
same,RT activity,HIV-1 (strain LAV-1); PFA 8 μM,703 kdpm/ml
same,RT activity,HIV-1 (strain LAV-1); PFA 16 μM,455 kdpm/ml
same,RT activity,HIV-1 (strain LAV-1); PFA 32 μM,190 kdpm/ml
same,RT activity,HIV-1 (strain LAV-1); PFA 64 μM,93.1 kdpm/ml
same,RT activity,HIV-1 (strain LAV-1); PFA 128 μM,35.9 kdpm/ml
"Cc1cn([C@H]2C[C@H](N=[N+]=[N-])[C@@H](COP(=O)(O)OP(=O)(O)OP(=O)(O)O)O2)c(=O)[nH]c1=O [AZT-TP, 3'-azido-3'-deoxythymidine-5'-triphosphate]",m ± SE (slope of median effect plot),HCMV DNA polymerase; CMV DNA polymerase,0.88 ± 0.09
same,m ± SE (slope of median effect plot),[2]; HIV-1 reverse transcriptase,0.87±0.03
same,EC50,"[2]; HIV-1 reverse transcriptase, read-out: EC50 (median effective concentration)",3 nM
